Experimental data: ChEMBL document CHEMBL1833857, “Histone deacetylase activators: N-acetylthioureas serve as highly potent and isozyme selective activators for human histone deacetylase-8 on a fluorescent substrate” (Bioorg Med Chem Lett, 2011)
Calls of active or inactive are those of the source. No cut-off for these calls is given here.

Columns and labels:
[1] = target: T1, Histone deacetylase 8 (Homo sapiens) (UniProt Q9BY41); assay: Activation of recombinant human HDAC8 assessed as ratio of the initial rate of reaction in the absence and presence of compound using Fluor-de-Lys as substrate at 10 uM by spectrofluorometry
T1 sequence (whole entry): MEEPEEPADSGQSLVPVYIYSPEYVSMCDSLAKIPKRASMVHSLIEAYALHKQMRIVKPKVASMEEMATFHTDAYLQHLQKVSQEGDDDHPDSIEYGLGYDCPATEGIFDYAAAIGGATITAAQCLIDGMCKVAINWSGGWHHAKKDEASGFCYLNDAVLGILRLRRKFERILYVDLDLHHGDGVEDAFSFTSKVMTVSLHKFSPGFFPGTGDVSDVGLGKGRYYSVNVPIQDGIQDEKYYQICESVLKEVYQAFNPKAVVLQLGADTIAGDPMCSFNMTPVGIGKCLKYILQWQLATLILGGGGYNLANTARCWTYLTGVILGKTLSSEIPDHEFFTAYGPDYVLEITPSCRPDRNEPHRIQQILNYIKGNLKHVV

[2] = target: Histone deacetylase 1 (Homo sapiens) (UniProt Q13547); assay: Inhibition of HDAC1 using Fluor-de-Lys as substrate at 100 uM by spectrofluorometry
Histone deacetylase 1 (Homo sapiens), sequence (Q13547 whole entry): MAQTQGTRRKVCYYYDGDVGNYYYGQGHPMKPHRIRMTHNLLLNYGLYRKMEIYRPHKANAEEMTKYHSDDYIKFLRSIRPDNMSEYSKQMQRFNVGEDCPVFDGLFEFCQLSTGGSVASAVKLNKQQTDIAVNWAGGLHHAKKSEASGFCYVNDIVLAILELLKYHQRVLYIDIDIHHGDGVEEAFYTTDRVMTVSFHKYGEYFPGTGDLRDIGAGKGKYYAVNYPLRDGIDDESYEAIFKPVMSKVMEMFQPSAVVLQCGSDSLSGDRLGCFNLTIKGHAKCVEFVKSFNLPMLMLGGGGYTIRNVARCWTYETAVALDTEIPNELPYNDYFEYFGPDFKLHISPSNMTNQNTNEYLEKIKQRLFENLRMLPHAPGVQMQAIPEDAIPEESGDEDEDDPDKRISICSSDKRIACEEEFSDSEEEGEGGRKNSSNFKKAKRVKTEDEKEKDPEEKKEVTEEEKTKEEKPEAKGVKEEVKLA

[3] = target: Histone deacetylase 2 (Homo sapiens) (UniProt Q92769); assay: Inhibition of HDAC2 using Fluor-de-Lys as substrate at 100 uM by spectrofluorometry
Histone deacetylase 2 (Homo sapiens), sequence (Q92769 whole entry): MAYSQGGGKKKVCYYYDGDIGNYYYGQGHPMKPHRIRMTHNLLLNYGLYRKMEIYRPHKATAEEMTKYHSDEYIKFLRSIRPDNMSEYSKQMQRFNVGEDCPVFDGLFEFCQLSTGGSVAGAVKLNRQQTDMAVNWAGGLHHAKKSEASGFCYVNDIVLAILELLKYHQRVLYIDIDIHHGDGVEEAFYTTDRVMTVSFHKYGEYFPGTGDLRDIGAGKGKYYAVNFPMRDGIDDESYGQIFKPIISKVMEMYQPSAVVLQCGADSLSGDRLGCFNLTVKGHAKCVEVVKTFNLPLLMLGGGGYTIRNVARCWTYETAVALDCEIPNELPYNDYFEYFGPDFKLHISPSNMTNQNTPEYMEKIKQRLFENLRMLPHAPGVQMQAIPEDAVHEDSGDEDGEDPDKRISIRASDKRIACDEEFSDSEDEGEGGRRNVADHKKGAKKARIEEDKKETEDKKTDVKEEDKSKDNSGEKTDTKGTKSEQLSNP

[4] = target: Histone deacetylase 3 (Homo sapiens) (UniProt O15379); assay: Inhibition of HDAC3 using Fluor-de-Lys as substrate at 100 uM by spectrofluorometry
Histone deacetylase 3 (Homo sapiens), sequence (O15379 whole entry): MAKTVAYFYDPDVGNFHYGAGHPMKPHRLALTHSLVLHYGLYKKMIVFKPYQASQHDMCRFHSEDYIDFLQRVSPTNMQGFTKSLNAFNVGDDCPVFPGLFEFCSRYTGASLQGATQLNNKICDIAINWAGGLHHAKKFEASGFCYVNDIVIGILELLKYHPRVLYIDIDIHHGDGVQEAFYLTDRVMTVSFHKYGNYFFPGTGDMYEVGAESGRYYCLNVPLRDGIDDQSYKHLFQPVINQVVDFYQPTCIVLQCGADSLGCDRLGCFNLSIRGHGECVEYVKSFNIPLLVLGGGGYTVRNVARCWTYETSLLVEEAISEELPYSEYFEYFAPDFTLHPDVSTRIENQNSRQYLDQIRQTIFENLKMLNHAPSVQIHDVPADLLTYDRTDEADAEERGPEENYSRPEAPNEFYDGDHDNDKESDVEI

[5] = target: Histone deacetylase 4 (Homo sapiens) (UniProt P56524); assay: Inhibition of HDAC4 using trifluoroacetyl-lysine containing fluorogenic substrate at 100 uM by spectrofluorometry
Histone deacetylase 4 (Homo sapiens), sequence (P56524 whole entry): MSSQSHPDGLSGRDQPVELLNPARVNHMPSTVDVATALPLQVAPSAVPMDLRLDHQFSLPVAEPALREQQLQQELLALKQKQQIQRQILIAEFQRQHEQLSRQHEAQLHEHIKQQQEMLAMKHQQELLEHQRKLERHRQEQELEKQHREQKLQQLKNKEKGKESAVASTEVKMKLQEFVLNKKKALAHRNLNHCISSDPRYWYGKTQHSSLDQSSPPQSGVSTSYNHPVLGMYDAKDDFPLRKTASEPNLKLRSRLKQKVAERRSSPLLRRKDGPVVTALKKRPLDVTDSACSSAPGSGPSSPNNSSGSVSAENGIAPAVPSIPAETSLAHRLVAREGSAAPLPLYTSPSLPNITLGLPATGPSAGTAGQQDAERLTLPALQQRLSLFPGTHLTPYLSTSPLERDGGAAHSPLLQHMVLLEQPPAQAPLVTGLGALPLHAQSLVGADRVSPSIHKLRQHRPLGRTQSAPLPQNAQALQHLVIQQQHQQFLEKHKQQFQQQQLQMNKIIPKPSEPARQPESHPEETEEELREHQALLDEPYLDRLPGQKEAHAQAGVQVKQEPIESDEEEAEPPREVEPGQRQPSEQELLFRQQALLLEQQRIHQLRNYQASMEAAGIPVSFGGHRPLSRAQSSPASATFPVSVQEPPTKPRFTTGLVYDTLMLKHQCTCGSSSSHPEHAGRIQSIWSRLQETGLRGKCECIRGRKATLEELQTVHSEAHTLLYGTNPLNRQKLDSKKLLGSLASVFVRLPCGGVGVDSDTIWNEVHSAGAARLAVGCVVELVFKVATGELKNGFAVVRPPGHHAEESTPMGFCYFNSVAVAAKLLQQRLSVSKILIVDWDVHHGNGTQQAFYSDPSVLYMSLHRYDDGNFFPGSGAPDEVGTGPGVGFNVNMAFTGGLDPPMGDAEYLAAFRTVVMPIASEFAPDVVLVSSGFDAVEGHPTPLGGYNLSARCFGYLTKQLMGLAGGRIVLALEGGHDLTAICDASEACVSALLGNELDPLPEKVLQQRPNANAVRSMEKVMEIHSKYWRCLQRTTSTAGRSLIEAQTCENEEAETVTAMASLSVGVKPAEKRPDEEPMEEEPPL

[6] = target: T2, Protein deacetylase HDAC6 (Homo sapiens) (UniProt Q9UBN7); assay: Inhibition of HDAC6 using Fluor-de-Lys as substrate at 100 uM by spectrofluorometry
T2 sequence (whole entry): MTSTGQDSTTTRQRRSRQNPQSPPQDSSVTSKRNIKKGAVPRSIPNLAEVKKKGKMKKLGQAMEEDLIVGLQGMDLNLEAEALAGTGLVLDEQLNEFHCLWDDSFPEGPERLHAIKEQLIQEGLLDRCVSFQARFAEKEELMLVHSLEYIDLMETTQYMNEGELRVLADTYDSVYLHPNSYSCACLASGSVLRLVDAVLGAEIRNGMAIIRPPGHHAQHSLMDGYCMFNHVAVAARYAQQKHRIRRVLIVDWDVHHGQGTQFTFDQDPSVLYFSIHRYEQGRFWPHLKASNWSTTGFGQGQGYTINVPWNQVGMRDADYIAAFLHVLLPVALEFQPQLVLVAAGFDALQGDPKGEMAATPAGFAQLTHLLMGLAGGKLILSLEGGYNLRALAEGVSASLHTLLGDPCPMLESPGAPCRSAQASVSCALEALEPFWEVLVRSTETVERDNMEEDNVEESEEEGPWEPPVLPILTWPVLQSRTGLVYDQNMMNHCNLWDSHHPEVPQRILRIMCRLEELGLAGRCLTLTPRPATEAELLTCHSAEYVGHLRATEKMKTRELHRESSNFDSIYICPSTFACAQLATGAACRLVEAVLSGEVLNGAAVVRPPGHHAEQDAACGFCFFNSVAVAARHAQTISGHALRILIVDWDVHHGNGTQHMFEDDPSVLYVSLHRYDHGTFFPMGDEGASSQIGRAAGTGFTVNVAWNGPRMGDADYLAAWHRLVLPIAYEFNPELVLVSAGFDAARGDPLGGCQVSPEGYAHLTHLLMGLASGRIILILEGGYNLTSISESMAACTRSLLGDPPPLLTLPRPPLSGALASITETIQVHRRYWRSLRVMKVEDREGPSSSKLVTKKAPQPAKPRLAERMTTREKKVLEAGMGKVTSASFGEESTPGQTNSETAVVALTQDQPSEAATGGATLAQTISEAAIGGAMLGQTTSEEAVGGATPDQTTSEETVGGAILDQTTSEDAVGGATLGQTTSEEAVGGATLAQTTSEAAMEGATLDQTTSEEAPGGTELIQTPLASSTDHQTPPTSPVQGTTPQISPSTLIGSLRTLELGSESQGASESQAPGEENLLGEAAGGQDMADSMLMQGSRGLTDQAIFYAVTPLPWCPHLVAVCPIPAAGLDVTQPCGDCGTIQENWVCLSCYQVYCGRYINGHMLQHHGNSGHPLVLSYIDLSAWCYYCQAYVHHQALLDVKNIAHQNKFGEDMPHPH

[7] = target: T3, Polyamine deacetylase HDAC10 (Homo sapiens) (UniProt Q969S8); assay: Inhibition of HDAC10 using Fluor-de-Lys as substrate at 100 uM by spectrofluorometry
T3 sequence (whole entry): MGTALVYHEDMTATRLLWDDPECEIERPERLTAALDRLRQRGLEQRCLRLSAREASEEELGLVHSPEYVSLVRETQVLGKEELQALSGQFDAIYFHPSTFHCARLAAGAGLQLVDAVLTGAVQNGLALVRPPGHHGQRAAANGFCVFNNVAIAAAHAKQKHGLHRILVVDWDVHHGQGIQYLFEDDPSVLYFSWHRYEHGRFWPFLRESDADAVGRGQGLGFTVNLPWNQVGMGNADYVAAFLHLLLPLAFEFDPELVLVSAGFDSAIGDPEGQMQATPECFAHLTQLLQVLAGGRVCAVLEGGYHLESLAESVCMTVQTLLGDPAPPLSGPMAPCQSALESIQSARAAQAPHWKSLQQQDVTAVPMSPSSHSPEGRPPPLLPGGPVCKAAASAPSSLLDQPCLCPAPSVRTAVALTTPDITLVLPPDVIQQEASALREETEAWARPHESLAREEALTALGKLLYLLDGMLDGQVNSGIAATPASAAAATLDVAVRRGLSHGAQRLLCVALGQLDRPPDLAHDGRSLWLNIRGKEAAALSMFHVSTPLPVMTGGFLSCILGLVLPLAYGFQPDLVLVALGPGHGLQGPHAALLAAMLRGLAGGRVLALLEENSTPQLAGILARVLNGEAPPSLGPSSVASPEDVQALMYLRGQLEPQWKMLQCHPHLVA

[8] = target: T4, Histone deacetylase 11 (Homo sapiens) (UniProt Q96DB2); assay: Inhibition of HDAC11 using Fluor-de-Lys as substrate at 100 uM by spectrofluorometry
T4 sequence (whole entry): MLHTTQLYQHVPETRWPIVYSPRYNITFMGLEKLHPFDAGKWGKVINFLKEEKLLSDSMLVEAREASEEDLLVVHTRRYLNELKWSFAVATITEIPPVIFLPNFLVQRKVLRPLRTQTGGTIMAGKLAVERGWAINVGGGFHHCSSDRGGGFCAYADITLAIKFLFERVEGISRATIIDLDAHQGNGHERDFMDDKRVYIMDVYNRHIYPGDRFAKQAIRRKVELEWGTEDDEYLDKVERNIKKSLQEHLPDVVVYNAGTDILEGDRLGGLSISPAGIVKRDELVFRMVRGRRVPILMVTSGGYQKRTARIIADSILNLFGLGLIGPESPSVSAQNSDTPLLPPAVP

[9] = target: Histone deacetylase 1 (Homo sapiens) (UniProt Q13547); assay: Activation of HDAC1 using Fluor-de-Lys as substrate at 100 uM by spectrofluorometry
[10] = target: Histone deacetylase 3 (Homo sapiens) (UniProt O15379); assay: Activation of HDAC3 using Fluor-de-Lys as substrate at 100 uM by spectrofluorometry
[11] = target: Histone deacetylase 4 (Homo sapiens) (UniProt P56524); assay: Activation of HDAC4 using trifluoroacetyl-lysine containing fluorogenic substrate at 100 uM by spectrofluorometry
[12] = target: T2, Protein deacetylase HDAC6 (Homo sapiens); assay: Activation of HDAC6 using Fluor-de-Lys as substrate at 100 uM by spectrofluorometry
[13] = target: Histone deacetylase 1 (Homo sapiens) (UniProt Q13547); assay: Activation of HDAC1 using Fluor-de-Lys as substrate at 10 uM by spectrofluorometry
[14] = target: Histone deacetylase 3 (Homo sapiens) (UniProt O15379); assay: Activation of HDAC3 using Fluor-de-Lys as substrate at 10 uM by spectrofluorometry
[15] = target: Histone deacetylase 4 (Homo sapiens) (UniProt P56524); assay: Activation of HDAC4 using trifluoroacetyl-lysine containing fluorogenic substrate at 10 uM by spectrofluorometry
[16] = target: T2, Protein deacetylase HDAC6 (Homo sapiens); assay: Activation of HDAC6 using Fluor-de-Lys as substrate at 10 uM by spectrofluorometry
[17] = target: Histone deacetylase 2 (Homo sapiens) (UniProt Q92769); assay: Activation of HDAC2 using Fluor-de-Lys as substrate at 100 uM by spectrofluorometry
[18] = target: T3, Polyamine deacetylase HDAC10 (Homo sapiens); assay: Activation of HDAC10 using Fluor-de-Lys as substrate at 100 uM by spectrofluorometry
[19] = target: Histone deacetylase 2 (Homo sapiens) (UniProt Q92769); assay: Activation of HDAC2 using Fluor-de-Lys as substrate at 10 uM by spectrofluorometry
[20] = target: T3, Polyamine deacetylase HDAC10 (Homo sapiens); assay: Activation of HDAC10 using Fluor-de-Lys as substrate at 10 uM by spectrofluorometry

Row | fold change (FC) [1] | inhibition [2] | inhibition [3] | inhibition [4] | inhibition [5] | inhibition [6] | inhibition [7] | inhibition [8] [%] | Activity [9] | Activity [10] | Activity [11] | Activity [12] | Activity [13] | Activity [14] | Activity [15] | Activity [16] | Activity [17] | Activity [18] | Activity [19] | Activity [20] | Compound
1 | 4.5 | inactive | 5% | inactive | inactive | inactive | 10% | 10 | inactive | inactive | inactive | inactive | inactive | inactive | inactive | inactive | – | – | – | – | C[C@H](NC(=S)NC(=O)c1ccccc1)c1ccccc1
2 | 3 | 5% | inactive | inactive | inactive | inactive | inactive | 6 | – | inactive | inactive | inactive | – | inactive | inactive | inactive | inactive | inactive | inactive | inactive | O=C(NC(=S)NCc1ccc(F)cc1)c1ccccc1
3 | 8.4 | inactive | 6% | 5% | inactive | 5% | 10% | 10 | inactive | – | inactive | – | inactive | – | inactive | – | – | – | – | – | COc1cc(NC(=S)NC(=O)c2ccccc2)cc(OC)c1
4 | 1 | inactive | inactive | inactive | inactive | inactive | 5% | 14 | inactive | inactive | inactive | inactive | inactive | inactive | inactive | inactive | inactive | – | inactive | – | O=C(NC(=S)NCc1ccccc1)c1ccccc1F
5 | 1.1 | inactive | inactive | inactive | inactive | 10% | 10% | 10 | inactive | inactive | inactive | – | inactive | inactive | inactive | – | inactive | – | inactive | – | O=C(NC(=S)NCc1cc(C(F)(F)F)cc(C(F)(F)F)c1)c1ccccc1
6 | 3 | inactive | 9% | 5% | inactive | 10% | 47% | 12 | inactive | – | inactive | – | inactive | – | inactive | – | – | – | – | – | O=C(NC(=S)NCc1cccs1)c1ccccc1
7 | 1.1 | inactive | 10% | inactive | inactive | inactive | 5% | 10 | inactive | inactive | inactive | inactive | inactive | inactive | inactive | inactive | – | – | – | – | O=C(NC(=S)NCc1ccc(-c2ccccc2)cc1)c1ccccc1
8 | 1.5 | – | 6% | 6% | inactive | 45% | 5% | 8 | 4% | – | inactive | – | inactive | – | inactive | – | – | – | – | – | C[C@@H](NC(=S)NC(=O)c1ccccc1)c1ccccc1
